Results published in ChEMBL document CHEMBL1201862, “PubChem BioAssay data set” (2004).
Activity calls are given as the source filed them.

Experiments:
[1] = target: Lysine-specific demethylase 4A (Homo sapiens, UniProt O75164); experiment: inhibition of JMJD2A H3K9me3 demethylation – biochemical, DELFIA europium, cherry-picked samples, selectivity assay for GASC-1 inhibitor project, dose response (AID 488840)
[2] = target: sn-1-specific diacylglycerol lipase ABHD11 (Mus musculus, UniProt Q8K4F5); experiment: Late stage assay provider results from the probe development effort to identify inhibitors of LYPLA1: fluorescence-based cell-based gel-based Activity-Based Protein Profiling (ABPP) IC50 for anti-target ABHD11. [Related pubchem assays (depositor defined):AID2174, AID2177, AID2202, AID2203, AID2232, AID2233, AID493105, AID493108, AID493109, AID493110, AID493111, AID493154, AID493161, AID504892]; format: functional
Sequence of sn-1-specific diacylglycerol lipase ABHD11 (Q8K4F5 whole entry): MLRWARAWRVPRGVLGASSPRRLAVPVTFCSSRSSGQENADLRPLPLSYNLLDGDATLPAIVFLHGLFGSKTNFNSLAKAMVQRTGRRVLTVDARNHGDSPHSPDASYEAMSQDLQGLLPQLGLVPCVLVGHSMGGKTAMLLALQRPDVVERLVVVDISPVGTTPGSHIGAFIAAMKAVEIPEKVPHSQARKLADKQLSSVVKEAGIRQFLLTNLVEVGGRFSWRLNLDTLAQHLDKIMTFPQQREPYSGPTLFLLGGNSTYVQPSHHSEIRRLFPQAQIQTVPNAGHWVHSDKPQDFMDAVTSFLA

[3] = target: Cytochrome P450 2C9 (Homo sapiens, UniProt P11712)
Sequence of Cytochrome P450 2C9 (P11712 whole entry): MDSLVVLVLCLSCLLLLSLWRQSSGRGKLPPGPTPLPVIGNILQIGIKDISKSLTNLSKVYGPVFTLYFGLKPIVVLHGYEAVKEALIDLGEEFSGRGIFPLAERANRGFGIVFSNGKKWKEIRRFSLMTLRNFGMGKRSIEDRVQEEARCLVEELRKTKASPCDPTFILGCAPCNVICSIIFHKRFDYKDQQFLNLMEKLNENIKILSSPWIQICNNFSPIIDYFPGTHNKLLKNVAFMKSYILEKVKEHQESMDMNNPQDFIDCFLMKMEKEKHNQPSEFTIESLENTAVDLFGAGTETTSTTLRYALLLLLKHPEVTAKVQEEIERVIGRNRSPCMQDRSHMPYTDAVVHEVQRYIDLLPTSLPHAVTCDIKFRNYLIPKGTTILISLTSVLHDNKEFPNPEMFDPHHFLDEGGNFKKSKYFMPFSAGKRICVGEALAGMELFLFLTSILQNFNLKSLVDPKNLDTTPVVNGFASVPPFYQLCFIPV

[4] = target: T1, Cytochrome P450 1A2 (Homo sapiens, UniProt P05177);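 also: PubChem cytochrome P450 panel assay, CYP1A2 panel member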
T1 sequence (P05177 whole entry): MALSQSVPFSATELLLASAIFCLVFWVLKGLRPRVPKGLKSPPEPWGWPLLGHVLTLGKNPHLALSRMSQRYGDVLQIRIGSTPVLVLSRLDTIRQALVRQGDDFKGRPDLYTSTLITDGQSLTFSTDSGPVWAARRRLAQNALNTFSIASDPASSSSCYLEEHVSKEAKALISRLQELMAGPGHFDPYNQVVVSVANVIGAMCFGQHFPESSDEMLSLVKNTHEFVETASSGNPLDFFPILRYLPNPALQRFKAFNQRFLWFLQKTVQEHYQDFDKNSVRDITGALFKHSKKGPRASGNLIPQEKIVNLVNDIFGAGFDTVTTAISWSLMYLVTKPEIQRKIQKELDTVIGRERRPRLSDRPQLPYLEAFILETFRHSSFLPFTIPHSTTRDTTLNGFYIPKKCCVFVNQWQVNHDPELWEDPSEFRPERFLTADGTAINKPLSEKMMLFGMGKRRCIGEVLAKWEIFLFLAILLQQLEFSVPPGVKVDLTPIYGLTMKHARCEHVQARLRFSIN

[5] = target: T2, Ubiquitin-conjugating enzyme E2 N (Homo sapiens, UniProt P61088); format: functional;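 also: Dose-response confirmation in a TR-FRET assay detecting UBC13-driven polyubiquitin chain formation, inhibition measured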
T2 sequence (P61088 whole entry): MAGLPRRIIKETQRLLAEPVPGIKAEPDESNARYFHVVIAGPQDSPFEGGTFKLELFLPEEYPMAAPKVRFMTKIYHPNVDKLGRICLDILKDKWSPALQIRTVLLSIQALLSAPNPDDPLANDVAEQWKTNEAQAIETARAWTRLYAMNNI

[6] = target: Cytochrome P450 2C19 (Homo sapiens, UniProt P33261); experiment: Cytochrome panel assay with activity outcomes. Panel member name: p450-cyp2c19 Compounds with AC50 equal or less than 10 uM are considered active; format: functional
Sequence of Cytochrome P450 2C19 (P33261 whole entry): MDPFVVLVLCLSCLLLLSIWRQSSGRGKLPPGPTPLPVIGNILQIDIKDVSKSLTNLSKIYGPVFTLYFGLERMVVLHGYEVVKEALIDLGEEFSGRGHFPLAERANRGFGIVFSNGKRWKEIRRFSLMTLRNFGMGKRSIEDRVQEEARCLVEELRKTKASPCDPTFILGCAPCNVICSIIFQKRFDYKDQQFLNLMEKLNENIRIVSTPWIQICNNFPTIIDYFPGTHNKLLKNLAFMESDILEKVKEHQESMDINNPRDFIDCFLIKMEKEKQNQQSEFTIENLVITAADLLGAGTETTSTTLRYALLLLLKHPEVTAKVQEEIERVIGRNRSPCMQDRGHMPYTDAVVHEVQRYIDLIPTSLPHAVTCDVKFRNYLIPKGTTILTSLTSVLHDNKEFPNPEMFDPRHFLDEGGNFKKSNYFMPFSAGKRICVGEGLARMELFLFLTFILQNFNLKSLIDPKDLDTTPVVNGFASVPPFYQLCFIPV

[7] = target: Trypsin (Sus scrofa, UniProt P00761); experiment: trypsin protease activity blockade – biochemical, quenched peptide fluorescence, cherry-pick, selectivity assay for Rce1 protease inhibitor project, dose response (AID 488789)
Sequence of Trypsin (P00761 whole entry): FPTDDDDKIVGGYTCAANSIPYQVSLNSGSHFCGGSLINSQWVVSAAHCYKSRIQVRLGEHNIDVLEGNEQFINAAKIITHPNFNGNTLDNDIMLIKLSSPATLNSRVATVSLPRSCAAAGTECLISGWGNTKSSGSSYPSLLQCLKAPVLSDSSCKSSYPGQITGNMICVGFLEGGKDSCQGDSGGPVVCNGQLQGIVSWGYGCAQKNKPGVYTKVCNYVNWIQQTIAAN

[8] = target: T3, CAAX prenyl protease 2 (Homo sapiens, UniProt Q9Y256); experiment: inhibition of Ras-converting CAAX protease Rce1 – biochemical, yeast membranes, quenched-peptide fluorescence, cherry-pick, dose response (AID 588849)
T3 sequence (Q9Y256 whole entry): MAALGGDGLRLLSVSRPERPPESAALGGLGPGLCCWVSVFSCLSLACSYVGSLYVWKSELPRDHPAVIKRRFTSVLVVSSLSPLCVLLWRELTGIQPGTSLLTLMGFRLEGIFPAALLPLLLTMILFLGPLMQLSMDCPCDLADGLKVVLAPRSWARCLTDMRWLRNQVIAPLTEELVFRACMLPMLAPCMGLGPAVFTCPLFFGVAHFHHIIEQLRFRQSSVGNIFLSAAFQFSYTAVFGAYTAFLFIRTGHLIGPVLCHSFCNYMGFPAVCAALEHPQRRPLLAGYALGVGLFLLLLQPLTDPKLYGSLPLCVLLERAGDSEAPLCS

[9] = target: CAAX prenyl protease 1 (Saccharomyces cerevisiae S288c, UniProt P47154); experiment: yeast CAAX protease Ste24 inhibition – biochemical, S. cerevisiae, plate reader, cherry-pick, dose response (AID 488815)
[10] = tested on: Jurkat; experiment: blockers of NF-kB activation in T cells – Jurkat, luciferase reporter, luminescence, B- and T-cell, dose response (AID 489004); format: functional, cell-based; conditions: Homo sapiens;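 also: NF-kB luciferase reporter Jurkat cells stimulated with PMA plus ionomycin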
[11] = target: Neuropeptide Y receptor type 1 (Homo sapiens, UniProt P25929); experiment: IC50 of human NPY-Y1 blockers – cell-based, dose response (AID 1277); format: functional
Sequence of Neuropeptide Y receptor type 1 (P25929 whole entry): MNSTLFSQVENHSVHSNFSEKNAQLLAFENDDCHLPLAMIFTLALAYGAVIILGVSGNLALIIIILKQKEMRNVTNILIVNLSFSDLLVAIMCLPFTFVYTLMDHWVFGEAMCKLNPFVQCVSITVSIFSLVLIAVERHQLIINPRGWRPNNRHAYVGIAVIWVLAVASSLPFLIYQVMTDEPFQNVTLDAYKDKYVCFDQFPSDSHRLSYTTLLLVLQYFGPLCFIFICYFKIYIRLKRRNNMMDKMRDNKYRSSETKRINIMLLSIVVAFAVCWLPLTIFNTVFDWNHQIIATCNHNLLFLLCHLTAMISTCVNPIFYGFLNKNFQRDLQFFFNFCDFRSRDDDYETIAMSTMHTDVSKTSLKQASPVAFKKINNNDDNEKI

[12] = target: Neuropeptide Y receptor type 2 (Homo sapiens, UniProt P49146); experiment: IC50 for human NPY-Y2 blockade – cell-based, counter-screen for NPY-Y1 antagonist project, dose response (AID 1278); format: functional
Sequence of Neuropeptide Y receptor type 2 (P49146 whole entry): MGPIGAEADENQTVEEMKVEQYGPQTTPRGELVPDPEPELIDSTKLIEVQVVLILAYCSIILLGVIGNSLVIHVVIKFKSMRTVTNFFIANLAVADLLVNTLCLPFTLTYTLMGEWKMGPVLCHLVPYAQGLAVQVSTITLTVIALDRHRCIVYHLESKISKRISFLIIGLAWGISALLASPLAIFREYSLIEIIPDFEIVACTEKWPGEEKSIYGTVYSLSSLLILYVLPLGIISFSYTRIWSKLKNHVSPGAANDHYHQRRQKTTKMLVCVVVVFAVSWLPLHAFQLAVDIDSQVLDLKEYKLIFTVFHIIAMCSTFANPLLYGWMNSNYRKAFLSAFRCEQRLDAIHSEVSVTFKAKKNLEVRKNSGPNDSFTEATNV

[13] = tested on: INS1; experiment: INS-1E survival protection against cytokine death – cell-based, luminescence, retest, dose response (AID 449756); format: functional; conditions: Rattus norvegicus;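 also: cell death triggered by IL-1 beta plus TNF-alpha plus IFN-gamma mixture; protective hits raise ATP signal compared with cytokine alone wells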
[14] = HEK-293T viability loss, compound-treated – cell-based, uHTS hits, cytotoxicity control for B/T-cell NF-kB inhibitor project, dose response (AID 489019); format: functional;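 also: IC50 reflects cytotoxicity as loss of cell viability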
[15] = target: T4, Intestinal-type alkaline phosphatase (Mus musculus, UniProt P24822); experiment: PubChem AID 488785; format: functional
T4 sequence (P24822 whole entry): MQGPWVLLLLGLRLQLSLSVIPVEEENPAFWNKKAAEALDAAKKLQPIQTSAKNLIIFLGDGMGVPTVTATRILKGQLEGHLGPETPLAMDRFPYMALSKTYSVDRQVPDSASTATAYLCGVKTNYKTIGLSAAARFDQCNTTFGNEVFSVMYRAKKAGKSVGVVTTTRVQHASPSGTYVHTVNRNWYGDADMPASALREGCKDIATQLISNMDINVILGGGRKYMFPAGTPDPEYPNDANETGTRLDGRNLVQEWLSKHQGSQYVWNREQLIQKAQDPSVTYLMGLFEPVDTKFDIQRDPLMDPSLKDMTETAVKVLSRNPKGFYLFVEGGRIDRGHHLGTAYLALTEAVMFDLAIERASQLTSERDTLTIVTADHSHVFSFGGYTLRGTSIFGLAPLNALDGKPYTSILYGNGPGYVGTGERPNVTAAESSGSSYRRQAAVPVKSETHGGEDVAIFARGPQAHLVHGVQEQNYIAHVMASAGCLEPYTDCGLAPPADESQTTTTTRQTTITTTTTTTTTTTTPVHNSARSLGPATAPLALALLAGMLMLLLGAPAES

[16] = target: T5, Alkaline phosphatase, tissue-nonspecific isozyme (Homo sapiens, UniProt P05186); experiment: TNAP enzyme inhibition by screening hits, dose response, selectivity assay for mouse IAP inhibitor project, biochemical, human TNAP, uHTS hits (AID 488906); format: functional
T5 sequence (P05186 whole entry): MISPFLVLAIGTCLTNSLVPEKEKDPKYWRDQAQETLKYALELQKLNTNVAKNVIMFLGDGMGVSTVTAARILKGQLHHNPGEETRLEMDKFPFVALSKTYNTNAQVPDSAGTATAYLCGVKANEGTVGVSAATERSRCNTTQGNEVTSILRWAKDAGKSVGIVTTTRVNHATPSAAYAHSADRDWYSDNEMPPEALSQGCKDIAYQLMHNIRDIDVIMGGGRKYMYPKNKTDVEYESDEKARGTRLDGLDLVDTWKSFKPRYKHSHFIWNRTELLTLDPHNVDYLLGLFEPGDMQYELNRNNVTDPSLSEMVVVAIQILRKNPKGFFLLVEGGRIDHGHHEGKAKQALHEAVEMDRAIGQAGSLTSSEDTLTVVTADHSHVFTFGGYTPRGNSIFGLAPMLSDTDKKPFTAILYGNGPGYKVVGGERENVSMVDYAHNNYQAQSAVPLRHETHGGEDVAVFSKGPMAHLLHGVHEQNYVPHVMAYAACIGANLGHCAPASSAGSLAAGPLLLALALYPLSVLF

[17] = target: T6, RNA-binding protein pos-1 (Caenorhabditis elegans, UniProt G5EF15); experiment: disruptors of C. elegans POS-1 RNA interaction – biochemical, fluorescence polarization, dose response (AID 1964);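 also: purified POS-1 fused to maltose binding protein made in E. coli; potency of compounds blocking POS-1 binding to fluorescent RNA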
T6 sequence (G5EF15 whole entry): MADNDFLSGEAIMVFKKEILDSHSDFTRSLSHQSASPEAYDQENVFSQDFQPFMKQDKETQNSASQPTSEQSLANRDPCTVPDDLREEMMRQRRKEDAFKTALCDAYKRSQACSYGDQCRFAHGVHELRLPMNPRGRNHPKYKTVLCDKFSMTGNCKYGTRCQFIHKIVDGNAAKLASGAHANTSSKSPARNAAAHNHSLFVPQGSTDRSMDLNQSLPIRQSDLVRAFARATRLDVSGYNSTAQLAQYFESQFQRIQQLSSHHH

[18] = target: T7, Intestinal-type alkaline phosphatase (Homo sapiens, UniProt P09923); experiment: inhibition of human intestinal alkaline phosphatase – biochemical, dose response (AID 488876); format: functional
T7 sequence (P09923 whole entry): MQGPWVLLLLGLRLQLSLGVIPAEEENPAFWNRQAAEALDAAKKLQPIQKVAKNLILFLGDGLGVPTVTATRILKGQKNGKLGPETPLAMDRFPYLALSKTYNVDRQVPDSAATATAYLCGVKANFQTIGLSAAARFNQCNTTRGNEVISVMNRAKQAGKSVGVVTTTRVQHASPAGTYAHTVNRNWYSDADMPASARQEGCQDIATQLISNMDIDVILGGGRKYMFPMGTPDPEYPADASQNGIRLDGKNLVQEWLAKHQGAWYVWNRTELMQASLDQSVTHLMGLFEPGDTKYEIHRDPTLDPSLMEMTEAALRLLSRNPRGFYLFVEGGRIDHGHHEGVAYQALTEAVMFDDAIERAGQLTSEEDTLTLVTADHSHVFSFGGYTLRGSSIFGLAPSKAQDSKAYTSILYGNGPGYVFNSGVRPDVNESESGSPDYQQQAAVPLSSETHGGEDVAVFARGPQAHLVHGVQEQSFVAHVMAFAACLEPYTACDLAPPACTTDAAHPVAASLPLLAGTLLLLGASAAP

[19] = target: Long-chain-fatty-acid--AMP ligase FadD28 (Mycobacterium tuberculosis, UniProt P9WQ59); experiment: Fluorescence polarization aasay to screen for inhibitors that compete for the binding of FadD28 to a bisubstrate Measured in Biochemical System Using Plate Reader - 2147-01_Inhibitor_Dose_CherryPick_Activity.; format: functional, Mycobacterium tuberculosis H37Rv
[20] = target: T8, Zinc finger protein mex-5 (Caenorhabditis elegans, UniProt Q9XUB2); experiment: potency of MEX-5 RNA-binding blockers – biochemical, C. elegans, fluorescence polarization, dose response (AID 1960)
T8 sequence (Q9XUB2 whole entry): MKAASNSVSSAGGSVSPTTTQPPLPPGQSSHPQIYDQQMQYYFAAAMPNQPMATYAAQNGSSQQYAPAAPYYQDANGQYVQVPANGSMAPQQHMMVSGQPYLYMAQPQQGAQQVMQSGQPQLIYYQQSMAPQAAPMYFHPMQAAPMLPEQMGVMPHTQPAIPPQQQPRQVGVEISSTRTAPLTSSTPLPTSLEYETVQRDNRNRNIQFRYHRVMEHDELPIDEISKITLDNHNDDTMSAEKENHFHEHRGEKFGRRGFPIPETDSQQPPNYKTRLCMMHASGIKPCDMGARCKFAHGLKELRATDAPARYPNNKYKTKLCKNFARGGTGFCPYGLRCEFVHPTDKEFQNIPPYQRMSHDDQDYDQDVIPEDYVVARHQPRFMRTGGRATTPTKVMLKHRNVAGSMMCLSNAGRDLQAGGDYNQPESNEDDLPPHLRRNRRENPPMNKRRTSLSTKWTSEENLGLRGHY

[21] = target: Dual specificity tyrosine-phosphorylation-regulated kinase 1A (Rattus norvegicus, UniProt Q63470); format: biochemical, Homo sapiens
[22] = target: T9, Rac GTPase-activating protein 1 (Homo sapiens, UniProt Q9H0H5); experiment: blockers of MgcRacGAP-driven Rac1 GTP hydrolysis – biochemical, ADP Hunter fluorescence, primary and confirmatory, confirmation (AID 624330); format: functional
T9 sequence (Q9H0H5 whole entry): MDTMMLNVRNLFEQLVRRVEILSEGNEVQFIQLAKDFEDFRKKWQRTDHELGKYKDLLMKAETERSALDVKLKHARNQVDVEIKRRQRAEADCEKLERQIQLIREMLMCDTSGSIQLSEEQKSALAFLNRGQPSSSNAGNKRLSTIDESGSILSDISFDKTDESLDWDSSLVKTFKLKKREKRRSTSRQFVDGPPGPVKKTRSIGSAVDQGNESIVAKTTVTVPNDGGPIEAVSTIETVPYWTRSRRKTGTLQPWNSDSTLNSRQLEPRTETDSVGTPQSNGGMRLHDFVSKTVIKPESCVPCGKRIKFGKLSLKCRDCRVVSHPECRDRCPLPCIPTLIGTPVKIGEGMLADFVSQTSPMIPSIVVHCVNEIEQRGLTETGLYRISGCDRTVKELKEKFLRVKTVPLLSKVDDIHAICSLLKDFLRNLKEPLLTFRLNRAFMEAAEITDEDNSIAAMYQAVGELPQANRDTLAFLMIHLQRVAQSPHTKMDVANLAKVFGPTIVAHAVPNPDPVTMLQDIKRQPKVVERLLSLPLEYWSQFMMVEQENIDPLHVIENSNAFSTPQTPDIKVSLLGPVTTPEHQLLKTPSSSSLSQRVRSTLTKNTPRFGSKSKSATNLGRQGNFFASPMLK

[23] = target: Nuclear receptor subfamily 0 group B member 1 (Homo sapiens, UniProt P51843); experiment: Luminescence-based cell-based high throughput dose response assay for inhibitors of the orphan nuclear receptor subfamily 0, group B, member 1 (DAX1; NR0B1). [Related pubchem assays (depositor defined):AID504766, AID504790]; format: functional
Sequence of Nuclear receptor subfamily 0 group B member 1 (P51843 whole entry): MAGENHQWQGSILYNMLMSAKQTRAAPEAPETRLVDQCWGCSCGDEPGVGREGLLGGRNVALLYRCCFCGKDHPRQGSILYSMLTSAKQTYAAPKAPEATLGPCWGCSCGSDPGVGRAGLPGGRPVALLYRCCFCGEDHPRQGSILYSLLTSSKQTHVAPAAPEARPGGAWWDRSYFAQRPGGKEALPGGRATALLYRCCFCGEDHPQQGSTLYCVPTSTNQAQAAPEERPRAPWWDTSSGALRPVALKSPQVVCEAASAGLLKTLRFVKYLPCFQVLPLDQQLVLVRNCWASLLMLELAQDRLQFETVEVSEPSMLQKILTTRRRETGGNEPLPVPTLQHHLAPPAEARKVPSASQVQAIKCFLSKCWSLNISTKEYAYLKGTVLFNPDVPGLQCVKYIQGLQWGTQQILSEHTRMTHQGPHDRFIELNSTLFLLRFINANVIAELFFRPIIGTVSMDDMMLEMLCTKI

[24] = target: T4, Intestinal-type alkaline phosphatase; experiment: PubChem AID 488874; format: functional
[25] = viability loss in HeLa cells – cytotoxicity control for MgcRacGAP inhibitor project, dose response (AID 624300); format: functional
[26] = target: T7, Intestinal-type alkaline phosphatase; experiment: inhibition of human intestinal alkaline phosphatase – biochemical, luminescent, uHTS hits, set 2, dose response (AID 488793); format: functional
[27] = target: T7, Intestinal-type alkaline phosphatase; experiment: Dose Response confirmation of uHTS hits from a small molecule inhibitors of human intestinal alkaline phosphatase via a luminescent assay. [Related pubchem assays (depositor defined):AID2544, AID2574]; format: functional
[28] = tested on: HEK293; experiment: cells; format: functional, cell-based; conditions: Homo sapiens
[29] = target: T5, Alkaline phosphatase, tissue-nonspecific isozyme; experiment: inhibition of tissue-nonspecific alkaline phosphatase – biochemical, dose response (AID 488882); format: functional
[30] = target: Lysine-specific demethylase 4C (Homo sapiens, UniProt Q9H3R0); experiment: inhibition of JMJD2C H3K9me3 demethylation – biochemical, DELFIA europium, cherry-picked samples, dose response (AID 488835); format: functional
Sequence of Lysine-specific demethylase 4C (Q9H3R0 whole entry): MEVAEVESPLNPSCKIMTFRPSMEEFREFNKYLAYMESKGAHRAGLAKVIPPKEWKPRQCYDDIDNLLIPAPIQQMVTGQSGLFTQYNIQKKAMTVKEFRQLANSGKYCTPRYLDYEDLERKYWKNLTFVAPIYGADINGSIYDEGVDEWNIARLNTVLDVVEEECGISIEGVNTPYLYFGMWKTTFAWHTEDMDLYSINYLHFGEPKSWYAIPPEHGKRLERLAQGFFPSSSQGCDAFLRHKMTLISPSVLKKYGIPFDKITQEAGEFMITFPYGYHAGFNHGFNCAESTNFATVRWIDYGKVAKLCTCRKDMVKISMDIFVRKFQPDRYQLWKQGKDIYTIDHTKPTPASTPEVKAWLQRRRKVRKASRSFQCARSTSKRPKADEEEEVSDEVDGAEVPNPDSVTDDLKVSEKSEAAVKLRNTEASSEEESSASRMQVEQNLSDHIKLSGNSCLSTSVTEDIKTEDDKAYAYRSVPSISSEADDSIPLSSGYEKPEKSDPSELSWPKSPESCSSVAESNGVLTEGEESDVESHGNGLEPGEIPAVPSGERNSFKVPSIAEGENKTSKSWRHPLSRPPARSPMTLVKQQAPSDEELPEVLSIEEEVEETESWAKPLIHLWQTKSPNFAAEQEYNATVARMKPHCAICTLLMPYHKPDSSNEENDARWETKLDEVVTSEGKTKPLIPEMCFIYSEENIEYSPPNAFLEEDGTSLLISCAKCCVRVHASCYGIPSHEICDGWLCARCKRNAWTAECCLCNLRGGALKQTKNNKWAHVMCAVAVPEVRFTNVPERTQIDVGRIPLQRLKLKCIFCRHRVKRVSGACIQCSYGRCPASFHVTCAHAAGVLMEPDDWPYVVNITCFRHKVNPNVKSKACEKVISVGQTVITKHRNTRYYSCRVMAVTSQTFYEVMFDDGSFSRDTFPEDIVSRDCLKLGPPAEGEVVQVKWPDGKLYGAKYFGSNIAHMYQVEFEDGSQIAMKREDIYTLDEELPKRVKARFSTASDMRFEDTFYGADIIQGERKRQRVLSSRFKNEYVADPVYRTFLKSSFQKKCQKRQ

Cc1ccc(N(CC(=O)N2CCn3c2nc2ccccc23)S(=O)(=O)c2c(C)n[nH]c2C)cc1
AC50 [1]: 55.7 µM (active)

COCC1CCCCN1C(=O)n1ncc(C(O)(c2ccccc2)c2ccccc2)n1 (stereo not given)
IC50 [2]: 0.000137 µM (active)

COc1cc(N)c(Cl)cc1C(=O)N[C@H]1CCN(CCCOc2ccc(F)cc2)C[C@H]1OC [REL-CISAPRIDE]
AC50 [3]: inconclusive | AC50 [4]: inactive | IC50 [5]: > 20 µM (inactive) | AC50 [6]: inactive

CCc1nnc(NC(=O)c2ccc(NS(=O)(=O)c3ccccc3)cc2)s1
AC50 [7]: 45.1 µM (active) | AC50 [8]: 5.24 µM (active) | AC50 [9]: 7.02 µM (active)

CCN(CC)S(=O)(=O)c1ccc(Oc2ccc(S(=O)(=O)N(CC)CC)cc2)cc1
IC50 [10]: > 80 µM (inactive) | IC50 [11]: > 35 µM (not active) | IC50 [12]: > 35 µM (not active) | AC50 [13]: 2.23 µM (active) | IC50 [14]: > 80 µM (inactive)

NS(=O)(=O)c1ccc(-c2ccc(/C=C3\NC(=S)NC3=O)o2)cc1
IC50 [15]: 9.48 µM (active) | IC50 [16]: 35.3 µM (active) | EC50 [17]: 21.7 µM (inconclusive) | IC50 [18]: > 100 µM (inactive) | AC50 [19]: 77.2 µM (active) | EC50 [20]: 10.8 µM (inconclusive) | AC50 [21]: 18.3 µM (active)

O=c1oc(-c2ccc(O)c(O)c2)cc2cc(O)cc(O)c12 [THUNBERGINOL B]
IC50 [22]: 20.4 µM (active) | IC50 [23]: > 67.5 µM (inactive) | IC50 [24]: 7.57 µM (active) | CC50 [25]: 100 µM (active) | IC50 [26]: 0.565 µM (active) | IC50 [27]: 2.17 µM (active) | IC50 [28]: > 67.5 µM (inactive) | IC50 [29]: 19.5 µM (active)

C=CCN1C(=O)NC(=O)/C(=C/c2ccoc2)C1=O
AC50 [30]: 22.2 µM (active)
